{"source": "patent US10278943B2", "about": "“Method of treating hyperglycemia” (Center Laboratories, Inc., priority 2016, dated 2019)", "format_in_all_cases": "in vivo", "key": {"NIDDM mice [1]": {"test_system": "NIDDM mice", "assay": "Fasting blood glucose level in NIDDM (db/db) mice, R-VPM and/or metformin, 42 days (Example 2.1)", "conditions": "for blood glucose level, % of day 0: 6-hr fasting; for effect on blood glucose level on its own: low dose, 15 mg/Kg, HCl; for reduction of blood glucose level compared with the vehicle group: metformin 300 mg/Kg", "protocol": "(§1) NIDDM mice and db/m+ mice (the sham control) were acclimated at least one week and then grouped for treatment when the average blood glucose value was ≥350 mg/dl after 6-hr fasting. […] Blood glucose and glycated haemoglobin (HbA1c) levels were measured on designated days after 6-hr fasting. Body weight of each test animal was also measured during the study period.\n(§2) For comparison, a group of 8 db/m+ (C57BLKS/J Lar-m+/+Lepr^db) mice were used as the sham control. Levels of blood glucose and HbA1c were respectively measured on day 0 (before treatment), and on day 15, 29 and 43 in the 6-hr fasting animals.\nIn Table 1, blood glucose level in each treatment group was expressed as % of the control, which was the blood glucose level on day 0 and was taken to be 100%."}, "NIDDM mice [2]": {"test_system": "NIDDM mice", "assay": "Fasting blood glucose level in NIDDM (db/db) mice, 44 days treatment (Example 1.2)", "protocol": "as §1\nFor comparison, a group of 5 db/m+ (C57BLKS/J Lar-m+/+Lepr^db) mice were used as the sham control. Blood glucose levels were measured on day 0 (before treatment), and on days 15, 30, and 45 in the 6-hr fasting animals. Results are illustrated in FIG. 2."}, "[3]": {"test_system": "STZ-induced diabetic mice", "assay": "Blood glucose level in STZ-induced diabetic mice (Example 1.1)", "protocol": "Wide-type male C57BL/6 mice were rendered diabetic by multiple intraperitoneal injection of streptozotocin (STZ, 40 mg/Kg/day for 5 days, day 1 to day 5). […] For animals treated with insulin, insulin was administered subcutaneously 90 minutes before blood glucose measurement. Non-fasting blood glucose level was measured on days 6, 15, and 25, whereas fasting blood glucose (i.e., blood glucose level after fasting for 12 hrs fasting) was measured on days 40 and 50.\nResults are illustrated in FIG. 1."}, "NIDDM mice [4]": {"test_system": "NIDDM mice", "assay": "Glycated haemoglobin (HbA1c) level in NIDDM (db/db) mice, R-VPM and/or metformin (Example 2.2)", "conditions": "for C = B − A, HbA1c level minus vehicle / HbA1c level relative to day 0 = 100: metformin 300 mg/Kg once daily", "protocol": "as §1, §2\nAnother common indicator, glycated haemolglobin (HbA1c), which reflects average blood glucose levels over a duration was also measured in the present study. HbA1c develops when haemolglobin, a protein within red blood cells that carries oxygen throughout the body joins with glucose in the blood and becomes “glycated.” Since red blood cells in a human body survive for about 8-12 weeks before renewal, thus, the level of HbA1c gives an overall picture of average blood sugar levels over such period."}, "[5]": {"conditions": "metformin 300 mg/Kg once daily, day 15"}, "[6]": {"conditions": "metformin 300 mg/Kg once daily, day 29"}, "[7]": {"conditions": "metformin 300 mg/Kg once daily, day 43"}}}
{"molecule": "COc1ccc(CCN(C)CCC[C@](C#N)(c2ccc(OC)c(OC)c2)C(C)C)cc1OC.Cl", "note": "[R-VMP, (R)-(+)-verapamil HCl]", "values": [{"measurement": "E = D − A, blood glucose level minus vehicle", "setting": "NIDDM mice [1]; R-VMP 15 mg/Kg, bid, day 15", "value": 2.3, "unit": "%"}, {"measurement": "blood glucose level, % of day 0", "setting": "NIDDM mice [1]; R-VMP 15 mg/Kg, bid, day 15", "value": 99.4, "unit": "%"}, {"measurement": "E = D − A, blood glucose level minus vehicle", "setting": "NIDDM mice [1]; R-VMP 15 mg/Kg, bid, day 29", "value": 5.2, "unit": "%"}, {"measurement": "blood glucose level, % of day 0", "setting": "NIDDM mice [1]; R-VMP 15 mg/Kg, bid, day 29", "value": 121.6, "unit": "%"}, {"measurement": "E = D − A, blood glucose level minus vehicle", "setting": "NIDDM mice [1]; R-VMP 15 mg/Kg, bid, day 43", "value": "−6.6", "unit": "%"}, {"measurement": "blood glucose level, % of day 0", "setting": "NIDDM mice [1]; R-VMP 15 mg/Kg, bid, day 43", "value": 115, "unit": "%"}, {"measurement": "E = D − A, blood glucose level minus vehicle", "setting": "NIDDM mice [1]; R-VMP 30 mg/Kg, bid, day 15", "value": "−9.4", "unit": "%"}, {"measurement": "blood glucose level, % of day 0", "setting": "NIDDM mice [1]; R-VMP 30 mg/Kg, bid, day 15", "value": 87.7, "unit": "%"}, {"measurement": "E = D − A, blood glucose level minus vehicle", "setting": "NIDDM mice [1]; R-VMP 30 mg/Kg, bid, day 29", "value": "−12.9", "unit": "%"}, {"measurement": "blood glucose level, % of day 0", "setting": "NIDDM mice [1]; R-VMP 30 mg/Kg, bid, day 29", "value": 103.5, "unit": "%"}, {"measurement": "E = D − A, blood glucose level minus vehicle", "setting": "NIDDM mice [1]; R-VMP 30 mg/Kg, bid, day 43", "value": "−21.9", "unit": "%"}, {"measurement": "blood glucose level, % of day 0", "setting": "NIDDM mice [1]; R-VMP 30 mg/Kg, bid, day 43", "value": 99.7, "unit": "%"}, {"measurement": "E = D − A, blood glucose level minus vehicle", "setting": "NIDDM mice [1]; R-VMP 50 mg/Kg, bid, day 15", "value": "−14.8", "unit": "%"}, {"measurement": "blood glucose level, % of day 0", "setting": "NIDDM mice [1]; R-VMP 50 mg/Kg, bid, day 15", "value": 82.3, "unit": "%"}, {"measurement": "E = D − A, blood glucose level minus vehicle", "setting": "NIDDM mice [1]; R-VMP 50 mg/Kg, bid, day 29", "value": "−22", "unit": "%"}, {"measurement": "blood glucose level, % of day 0", "setting": "NIDDM mice [1]; R-VMP 50 mg/Kg, bid, day 29", "value": 94.4, "unit": "%"}, {"measurement": "E = D − A, blood glucose level minus vehicle", "setting": "NIDDM mice [1]; R-VMP 50 mg/Kg, bid, day 43", "value": "−22.9", "unit": "%"}, {"measurement": "blood glucose level, % of day 0", "setting": "NIDDM mice [1]; R-VMP 50 mg/Kg, bid, day 43", "value": 98.7, "unit": "%"}, {"measurement": "effect on blood glucose levels (FIG. 3)", "setting": "NIDDM mice [1]; higher dose, 30 or 50 mg/Kg, bid", "value": "could reduce the blood glucose levels"}, {"measurement": "effect on blood glucose level on its own", "setting": "NIDDM mice [1]; bid", "value": "possessed no treatment effect"}, {"measurement": "effect on blood glucose level on its own", "setting": "NIDDM mice [1]; bid, listed as R-VPM", "value": "ineffective"}, {"measurement": "effect on fasting blood glucose level compared with control vehicle NIDDM mice (FIG. 2)", "setting": "NIDDM mice [2]; 50 and 75 mg/Kg, bid", "value": "reduced the fasting blood glucose level"}, {"measurement": "potency in reducing the level of fasting blood glucose, compared between enantiomers (FIG. 1)", "setting": "[3]; oral, bid, fasting 12 hrs, days 40 and 50", "value": "relatively more potent than (S)-(−)-verapamil HCl"}, {"measurement": "dose at which the compound alone is effective in reducing blood glucose level", "setting": "[3]; taken together of the findings in the working examples", "value": "≥ 25 mg/Kg, bid"}, {"measurement": "effect on HbA1c level (FIG. 4)", "setting": "NIDDM mice [4]; 15 mg/Kg, bid", "value": "no effect"}, {"measurement": "effect on HbA1c level (FIG. 4)", "setting": "NIDDM mice [4]; 30 mg/Kg, bid", "value": "mild reduction"}, {"measurement": "E = D − A, HbA1c level minus vehicle", "setting": "NIDDM mice [4]; R-VMP 15 mg/Kg, bid, day 15", "value": "−2.5"}, {"measurement": "E = D − A, HbA1c level minus vehicle", "setting": "NIDDM mice [4]; R-VMP 15 mg/Kg, bid, day 29", "value": 0.9}, {"measurement": "E = D − A, HbA1c level minus vehicle", "setting": "NIDDM mice [4]; R-VMP 15 mg/Kg, bid, day 43", "value": "−3.8"}, {"measurement": "E = D − A, HbA1c level minus vehicle", "setting": "NIDDM mice [4]; R-VMP 30 mg/Kg, bid, day 15", "value": "−1"}, {"measurement": "E = D − A, HbA1c level minus vehicle", "setting": "NIDDM mice [4]; R-VMP 30 mg/Kg, bid, day 29", "value": 0.1}, {"measurement": "E = D − A, HbA1c level minus vehicle", "setting": "NIDDM mice [4]; R-VMP 30 mg/Kg, bid, day 43", "value": "−12.8"}, {"measurement": "E = D − A, HbA1c level minus vehicle", "setting": "NIDDM mice [4]; R-VMP 50 mg/Kg, bid, day 15", "value": "−4.5"}, {"measurement": "E = D − A, HbA1c level minus vehicle", "setting": "NIDDM mice [4]; R-VMP 50 mg/Kg, bid, day 29", "value": "−3.7"}, {"measurement": "E = D − A, HbA1c level minus vehicle", "setting": "NIDDM mice [4]; R-VMP 50 mg/Kg, bid, day 43", "value": "−10.5"}]}
{"molecule": "CN(C)C(=N)N=C(N)N", "note": "[metformin, reference compound]", "values": [{"measurement": "C = B − A, blood glucose level minus vehicle", "setting": "NIDDM mice [1]; [5]", "value": "−31.8", "unit": "%"}, {"measurement": "blood glucose level, % of day 0", "setting": "NIDDM mice [1]; [5]", "value": 65.3, "unit": "%"}, {"measurement": "C = B − A, blood glucose level minus vehicle", "setting": "NIDDM mice [1]; [6]", "value": "−12.8", "unit": "%"}, {"measurement": "blood glucose level, % of day 0", "setting": "NIDDM mice [1]; [6]", "value": 103.6, "unit": "%"}, {"measurement": "C = B − A, blood glucose level minus vehicle", "setting": "NIDDM mice [1]; [7]", "value": "−12.8", "unit": "%"}, {"measurement": "blood glucose level, % of day 0", "setting": "NIDDM mice [1]; [7]", "value": 108.8, "unit": "%"}, {"measurement": "reduction of blood glucose level compared with the vehicle group", "setting": "NIDDM mice [1]; day 15", "value": "about 31.8%"}, {"measurement": "reduction of blood glucose level compared with the vehicle group", "setting": "NIDDM mice [1]; day 29", "value": "~12.8", "unit": "%"}, {"measurement": "reduction of blood glucose level compared with the vehicle group", "setting": "NIDDM mice [1]; day 43", "value": "~12.8", "unit": "%"}, {"measurement": "effect on blood glucose levels (FIG. 3)", "setting": "NIDDM mice [1]; metformin, days 15, 29 and 43", "value": "could reduce the blood glucose levels"}, {"measurement": "effect on level of fasting blood glucose (FIG. 2)", "setting": "NIDDM mice [2]; metformin 300 mg/Kg", "value": "reduced the level of fasting blood glucose"}, {"measurement": "effect on HbA1c level (FIG. 4)", "setting": "NIDDM mice [4]; metformin", "value": "significantly reduce HbA1c level"}, {"measurement": "C = B − A, HbA1c level minus vehicle", "setting": "NIDDM mice [4]; day 15", "value": "−5.5"}, {"measurement": "HbA1c level relative to day 0 = 100", "setting": "NIDDM mice [4]; day 15", "value": 114.7}, {"measurement": "C = B − A, HbA1c level minus vehicle", "setting": "NIDDM mice [4]; day 29", "value": "−2.5"}, {"measurement": "HbA1c level relative to day 0 = 100", "setting": "NIDDM mice [4]; day 29", "value": 124.9}, {"measurement": "C = B − A, HbA1c level minus vehicle", "setting": "NIDDM mice [4]; day 43", "value": "−3"}, {"measurement": "HbA1c level relative to day 0 = 100", "setting": "NIDDM mice [4]; day 43", "value": 133}]}
{"molecule": "insulin [reference compound]", "values": [{"measurement": "effect on level of non-fasting or fasting blood glucose (FIG. 1)", "setting": "[3]; insulin subcutaneously 90 minutes before measurement", "value": "capable of reducing"}]}
{"molecule": "COc1ccc(CCN(C)CCC[C@@](C#N)(c2ccc(OC)c(OC)c2)C(C)C)cc1OC.Cl", "note": "[S-VPM, (S)-(−)-verapamil HCl]", "values": [{"measurement": "effect on reduction of fasting blood glucose level (FIG. 2)", "setting": "NIDDM mice [2]; dose not printed in the sentence (bid)", "value": "neither racemic verapamil HCl (30 mg/Kg, bid) nor (S)-(−)-verapamil HCl, possessed any effect"}]}
{"molecule": "COc1ccc(CCN(C)CCCC(C#N)(c2ccc(OC)c(OC)c2)C(C)C)cc1OC", "note": "(racemic) [VPM, 2-(3,4-dimethoxyphenyl)-5-[2-(3,4-dimethoxyphenyl)ethylmethylamino]-2-propan-2-ylpentanenitrile, reference compound]", "values": [{"measurement": "effect on reduction of fasting blood glucose level (FIG. 2)", "setting": "NIDDM mice [2]; 30 mg/Kg, bid", "value": "neither racemic verapamil HCl (30 mg/Kg, bid) nor (S)-(−)-verapamil HCl, possessed any effect"}, {"measurement": "effect on fasting or non-fasting blood glucose level (FIG. 1)", "setting": "[3]; 25 or 35 mg/Kg, bid, oral", "value": "had no effects"}]}
